# Assay results as given in publication PMC5727842, “Antioxidant and Antidiabetic Effects of Flavonoids: A Structure-Activity Relationship Based Study” (BioMed Research International, 2017).
# Tests used:
# [1] = DPPH radical scavenging assay; details: 30 min, 517 nm, mean ± SEM (n = 3)
# Method: Each sample's stock solution was diluted to final concentrations of 1000–0.4889 μg/mL in MeOH. A total of 1 mL of a 0.3 mM DPPH methanolic solution was added to 2.5 mL of sample solution of different concentrations and allowed to react at room temperature. After 30 min, the absorbance (Abs) values were measured at 517 nm with a microplate reader (Tecan NanoQuant Infinite M200, Switzerland) and converted into the percentage antioxidant activity using the following equation described previously: (1) % antioxidant activity=100−Abssample−Abssample blank/Abscontrol−Abscontrol blank×100. MeOH + compound solution was used as a blank, while DPPH solution plus MeOH was used as a negative control. The positive controls were DPPH solution plus 1 mM ascorbic acid. The IC50 values were calculated by linear regression of plots. The average percent of scavenging capacity was taken from three replicates.
# DPP-4 = target: T1, DPP-4 (Homo sapiens, UniProt P27487); experiment: Dipeptidyl peptidase IV (DPP-4) inhibitory assay; type: biochemical; details: Table 3; mean ± SEM (n = 3); NA: not active
# T1 construct: purchased Cayman (Michigan, USA)
# Method: Dipeptidyl peptidase (IV) inhibitors work by inhibiting the action of this enzyme, thereby prolonging the activity of incretins that play an important role in insulin secretion and blood glucose control regulation. DPP-4 inhibitory assay was performed as per the standard method (Cayman, USA). Firstly, 1 mg of sample was dissolved in 10% of DMSO and MeOH as the stock solution. For initial activity (100%), 10 μL of MeOH, 30 μL of diluted assay buffer, and 10 μL of diluted DPP-4 (Cayman, USA) were added to 96-well microplate. […] For background well, 10 μL of MeOH and 40 μL of diluted assay buffer were added. Then, 10 μL of prepared sample and 30 μL of diluted assay buffer were added with 10 μL of diluted DPP-4. After that, 50 μL of substrate solution was added to all wells to initiate the reaction and further incubated in the dark at 37°C for 30 min. Finally, plate was read at 360 nm of excitation wavelength and 465 nm of emission wavelength using fluorescence microplate reader (Perkin Elmer, Germany). All determinations were done in triplicate and half maximal concentration (IC50) values were calculated from the percentage of inhibition based on the linear regression analysis. The equation given below was applied to calculate the inhibitory activity (%):(5) Inhibitory activity%=Initial Activity−Sample/Initial Activity×100%.
# For DPP-4 inhibitory assay, the reaction is based on the cleavage of the peptide bond by DPP releasing the free Gly-Pro-aminomethylcoumarin group, a fluorogenic substrate resulting in fluorescence excitation and emission.
# [2] = Rapid screening of radical scavenging activity by dot blot assay (DPPH staining); details: silica sheet stained with DPPH in MeOH, dilutions from 1000 μg/mL
# Method: An aliquot (20 μL) of each dilution of each group was carefully loaded on a […] TLC plate and allowed to dry for 10 min. Drops of each sample were loaded in the order of decreased concentration along the 16 columns. The staining of the silica plate was based on the procedure of Soler-Rivas et al.. […] The intensity of the yellow color depends upon the amount and nature of radical scavenger present in the flavonoids.
# [3] = Ferric reducing antioxidant power (FRAP); details: for FRAP (AAE μg): ascorbic acid equivalent, mean ± SEM (n = 3), Table 2
# Method: This assay was based on the reduction of the ferric tripyridyltriazine (Fe III-TPTZ) complex to the ferrous ion (Fe II) at a low pH forming an intense blue color. In the FRAP assay, compounds that are rich in antioxidant effect exert their action by breaking the free radical chain by donating a hydrogen atom. Briefly, ferric reducing antioxidant power (FRAP) reagent (2.5 mL of a 10 mM TPTZ solution in 40 mM HCl, 2.5 mL of 20 mM FeCl3, and 25 mL of 0.1 M acetate buffer pH 3.6) was prepared and incubated for 10 min at 37°C. Then 20 μL of each compound and ascorbic acid (standard) and 40 μL of FRAP reagent were added to 140 μL of distilled water in a 96-well plate producing a blue-colored solution. The solutions were kept at room temperature for 20 min in the dark and then measured at 593 nm with a microplate reader (Tecan, Switzerland) using a reagent blank composed of 40 μL of FRAP reagents in 200 μL of distilled water. A calibration curve was prepared with a serial dilution of ascorbic acid (standard). The total antioxidant capacity was calculated by interpolating the measured absorbance of the calibration curve and expressed as ascorbic acid equivalents. The results were corrected for dilution and expressed as AAE μg of ascorbic acid/g.
# [4] = target: α-glucosidase from Saccharomyces cerevisiae; experiment: α-Glucosidase inhibitory assay; type: biochemical; details: Table 3; mean ± SEM (n = 3); NA: not active
# Method: α-Glucosidase inhibitory activity of the flavonoids was carried out according to the standard method with minor modification. […] A solution of 30 mM phosphate buffer (pH 6.5) was used to prepare stock solution of the sample to form a final concentration of 160 μg/mL. Then, 10 μL/well of sample was mixed with 15 μL/well of α-glucosidase from Saccharomyces cerevisiae (Megazyme, Ireland). 50 mM buffer (pH 6.5) was used to prepare the enzyme solution. Then, 115 μL/well of 30 mM buffer (pH 6.5) was added and incubated for 5 min at room temperature. Then, 75 μL/well of PNP-glucoside was added to initiate reaction and incubated at room temperature for 15 min. Finally, about 50 μL glycine at pH 10 was added to stop the reaction. The final volume of 250 μL of compound, positive control, enzyme, 30 mM buffer, and substrate was located in 96-well microplate. The absorbance (Abs) was measured using microplate reader (Tecan NanoQuant Infinite M200, Switzerland) at 405 nm to represent the amount of p-nitrophenol released from PNP-glucoside. […] The equation given below was used to calculate the inhibitory activity (%):(4) Inhibitory activity%=Abs control−Abs sample/Abs control×100%.
# Tested on yeast α-glycosidase, the reaction is initiated by reacting the inhibitor (sample) with the α-glycosidase enzyme that competes with […] for the binding site, thus releasing ρ-nitrophenol which was measured in the assay.
# T1 sequence (P27487 whole entry): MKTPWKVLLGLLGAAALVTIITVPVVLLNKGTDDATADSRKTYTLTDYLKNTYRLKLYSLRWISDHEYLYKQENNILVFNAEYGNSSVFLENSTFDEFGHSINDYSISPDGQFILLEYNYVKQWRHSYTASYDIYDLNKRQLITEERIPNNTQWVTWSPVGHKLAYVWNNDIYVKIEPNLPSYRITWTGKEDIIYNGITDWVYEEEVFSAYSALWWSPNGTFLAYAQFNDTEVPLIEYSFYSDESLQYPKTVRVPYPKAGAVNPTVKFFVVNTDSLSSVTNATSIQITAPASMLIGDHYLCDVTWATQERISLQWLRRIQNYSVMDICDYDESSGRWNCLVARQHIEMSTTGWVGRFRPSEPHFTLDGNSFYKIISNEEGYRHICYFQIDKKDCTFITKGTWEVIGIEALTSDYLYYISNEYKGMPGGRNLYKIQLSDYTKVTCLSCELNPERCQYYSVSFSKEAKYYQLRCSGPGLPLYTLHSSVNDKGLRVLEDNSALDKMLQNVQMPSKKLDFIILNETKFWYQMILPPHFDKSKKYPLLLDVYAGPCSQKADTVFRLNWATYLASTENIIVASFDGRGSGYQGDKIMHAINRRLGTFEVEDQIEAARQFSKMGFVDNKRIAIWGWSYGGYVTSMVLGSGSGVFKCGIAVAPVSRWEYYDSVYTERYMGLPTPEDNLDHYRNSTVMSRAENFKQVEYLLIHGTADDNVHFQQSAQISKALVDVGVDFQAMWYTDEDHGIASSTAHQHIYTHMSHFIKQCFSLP
Structure (SMILES),IC50 DPPH [1],IC50 (DPP-4) [µM],radical scavenging activity by dot blot (intensity of yellow spots) [2],FRAP (AAE μg) [3],IC50 α-Glucosidase [4],FRAP antioxidant capacity [3]
"O=c1cc(-c2ccc(O)c(O)c2)oc2c(O)c(O)cc(O)c12 [Hypolaetin, 3′,4′,5,7,8-Pentahydroxyflavone]",3.69 ± 0.11^Ha µg/ml,115,strong radical scavenging activity,177.37 ± 1.82^B AAE μg,48.42 ± 9.71 µg/mL,
"COc1cc(O)c2c(=O)cc(-c3ccccc3)oc2c1 [Techtochrysin, 5-Hydroxy-7-methoxyflavone]",>100^B µg/ml,> 373,intermediate radical scavenging activity,11.49 ± 0.32^F AAE μg,>100^A µg/mg,11.49 ± 0.32 AAE μg of ascorbic acid/g
